Structures can show the parent of a compound that is named as a salt.
The compounds below were run against T1, activated ROCK II (Rattus norvegicus, UniProt Q62868) (assay: Test for Evaluation of Inhibiting Activity to Rho Kinase). Settings: S6 Kinase Substrate Peptide, [γ-32P]ATP, 30° C. for 15 minutes, Ki=IC50/(1+S/Km).
T1 construct: purchased Upstate Biotechnology 14-338
Format: biochemical
Method: In order to find the utility of the present invention compound, a Rho kinase inhibiting activity of the present invention compound was evaluated. The details thereof will be illustrated under the item of “Pharmacological Test (Test for Evaluation of Rho Kinase Inhibiting Activity)” in the Examples which will be mentioned later. The evaluation of the Rho kinase inhibiting activity of the present invention compound was carried out in accordance with the methods mentioned in J. Biol. Chem., 274, 32418 (1999) by Kaibuchi, et al. and mentioned in the instruction manual for use attached to the commercially available activated ROCK II [Upstate Biotechnology, Catalog No. 14-338 (5 units/50 μl)].
A. Test for Evaluation of Inhibiting Activity to Rho Kinase
In order to test the usefulness of the compounds of the present invention as a Rho kinase inhibitor, inhibiting activities of the compounds of the present invention to Rho kinase were evaluated and investigated in accordance with the methods of Kaibuchi, et al. mentioned in J. Biol. Chem., 274, 32418, 1999 and also with the methods mentioned in the instruction manual for use attached to commercially available activated ROCK II [Upstate Biotechnology, Catalog No. 14-338, (5 unite/50 μl)]. With regard to the test compounds, the compounds 5-1 to 5-73 (except the compounds 5-2, 5-9, 5-18, 5-37 and 5-38) were used.
A buffer was prepared so as to make tris(hydroxymethyl)aminomethane (Tris) (pH 7.5), 50 mM, ethyleneglycol bis(β-aminoethyl ether)-N,N,N′,N′-tetraacetic acid (EGTA), 2 mM, ethylenediaminetetraacetic acid (EDTA), 1 mM, magnesium chloride (MgCl2) 5 mM, β-glycerol phosphate, 5 mM, and dithiothreitol (DTT), 2 mM, by mixing them.
A mixed liquid of a 10 mM ATP solution with a commercially available [γ-^32P]ATP solution [NEN, Code No. NEG-002A] was diluted with the buffer to prepare a 300 μM ATP [γ-^32P]ATP solution.
A Commercially Available Activated ROCK II [Upstate Biotechnology, Catalog No. 14-338, (5 Units/50 μl)] was diluted to a concentration of 1/100 with the buffer to prepare an activated ROCK II solution.
A S6 Kinase Substrate Peptide [Upstate Biotechnology, Catalog No. 12-124,] (2 mg) was dissolved in distilled water to prepare a 1 mM substrate solution.
A test compound was dissolved in 10% aqueous dimethyl sulfoxide solution.
1) The test compound solution is placed in a microtube.
2) The 300 μM ATP [γ-^32P]ATP solution is added to the microtube followed by cooling to 4° C.
3) After that, a permanently activated ROCK II solution, 1 mM substrate solution and buffer are added to each microtube in that order, and the whole is mixed and cooled again at 4° C.
4) The microtube is placed in an incubator (30° C.) and the mixture is subjected to reaction for 15 minutes.
5) After cooling to 4° C., a 250 mM phosphoric acid solution (5 μl) is added to each microtube to stop the reaction.
6) The reaction solution (30 μl) is taken out from each microtube and spotted on a filter paper (Whatman P81) so that the reaction product (phosphorylated substrate) is adsorbed to the filter paper.
7) The filter paper is transferred to a beaker in which a 75 mM phosphoric acid solution is placed and shaken for 5 minutes so that unreacted [γ-^32P]AfP is washed out. The washing operation as such is carried out four times.
8) After that, the filter paper is dipped in ethanol to dehydrate and energy amount (radioactivity) of the reaction product adsorbed to the filter paper is measured with a liquid scintillation counter.
The IC50 value was calculated by an XL-fit (IDBS).
The Ki value is calculated by the following formula. S is an ATP concentration contained in the reaction solution while Km is a Michaelis-Menten constant. Ki=IC50/(1+S/Km)

T1 sequence (Q62868 11-550 limits assumed): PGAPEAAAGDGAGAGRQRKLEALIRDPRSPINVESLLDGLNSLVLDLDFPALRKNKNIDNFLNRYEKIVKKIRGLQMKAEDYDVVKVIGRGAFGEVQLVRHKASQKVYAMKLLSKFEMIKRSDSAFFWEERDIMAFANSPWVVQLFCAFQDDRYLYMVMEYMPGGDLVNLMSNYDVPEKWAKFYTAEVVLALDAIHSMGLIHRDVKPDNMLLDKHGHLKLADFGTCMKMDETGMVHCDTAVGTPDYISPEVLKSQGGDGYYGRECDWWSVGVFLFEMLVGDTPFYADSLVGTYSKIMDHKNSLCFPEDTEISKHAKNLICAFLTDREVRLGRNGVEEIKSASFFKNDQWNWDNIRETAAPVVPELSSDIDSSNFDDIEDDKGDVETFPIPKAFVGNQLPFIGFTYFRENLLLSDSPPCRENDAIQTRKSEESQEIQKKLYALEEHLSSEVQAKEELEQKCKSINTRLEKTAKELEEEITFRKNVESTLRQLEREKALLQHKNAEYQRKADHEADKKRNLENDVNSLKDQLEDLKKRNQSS

| Structure (SMILES) | Ki [nM] |
| --- | --- |
| CC(C)(N)c1ccc(-c2ccc3[nH]ncc3c2N2CCCC2)cc1 [Compound 5-42, 5-[4-(1-Amino-1-methylethyl)phenyl]-4-(pyrrolidin-1-yl)-1H-indazole trihydrochloride] | 14 |
| CC(C)(N)c1ccc(-c2ccc3[nH]nc(N)c3c2)cc1 [Compound 5-11, 3-Amino-5-[4-(1-amino-1-methylethyl)phenyl]-1H-indazole trihydrochloride] | 144 |
| CC(C)(N)c1ccc(-c2ccc3[nH]ncc3c2)nc1 [Compound 5-3, 5-[5-(1-Amino-1-methylethyl)pyridin-2-yl]-1H-indazole trihydrochloride] | 20 |
| CC(C)(N)c1ccc(-c2ccc3[nH]nc(CO)c3c2)cc1 [Compound 5-14, 5-[4-(1-Amino-1-methylethyl)phenyl]-3-hydroxymethyl-1H-indazole dihydrochloride] | 142 |
| CC(C)(N)c1ccc(-c2ccc3[nH]ncc3c2OCC(F)(F)F)cc1 [Compound 5-54, 5-[4-(1-Amino-1-methylethyl)phenyl]-4-(2,2,2-tri-fluoroethoxy)-1H-indazole dihydrochloride] | 31 |
| CCC(N)(CC)c1ccc(-c2ccc3[nH]ncc3c2N)cc1 [Compound 5-22, 4-Araino-5-[4-(1-amino-1-ethylpropyl)phenyl]-1H-indazole trihydrochloride] | 38 |
| CC(C)(N)c1ccc(-c2ccc3[nH]ncc3c2C#N)cc1 [Compound 5-36, 5-[4-(1-Amino-1-methylethyl)phenyl]-4-cyano-1H-indazole monohydrochloride] | 35 |
| CCCOc1c(-c2ccc(C(C)(C)N)cc2)ccc2[nH]ncc12 [Compound 5-52, 5-[4-(1-Amino-1-methylethyl)phenyl]-4-n-propoxy-1H-indazole dihydrochloride] | 14 |
| COc1c(-c2ccc(C(C)(C)N)cn2)ccc2[nH]ncc12 [Compound 5-45, 5-[5-(1-Amino-1-methylethyl)pyridin-2-yl]-4-methoxy-1H-indazole trihydrochloride] | 27 |
| CC(C)(N)c1ccc(-c2ccc3[nH]ncc3c2OCCF)cc1 [Compound 5-56, 5-[4-(1-Amino-1-methylethyl)phenyl]-4-(2-fluoro-ethoxy)-1H-indazole dihydrochloride] | 26 |
| CC(C)(N)c1ccc(-c2ccc3[nH]ncc3c2O)nc1 [Compound 5-69, 5-[5-(1-Amino-1-methylethyl)pyridin-2-yl]-4-hydroxy-1H-indazole trihydrochloride] | 55 |
| CC(C)(N)c1ccc(-c2ccc3[nH]ncc3c2OC(F)F)nc1 [Compound 5-59, 5-[5-(1-Amino-1-methylethyl)pyridin-2-yl]-4-difluoromethoxy-1H-indazole trihydrochloride] | 6.9 |
| COc1c(-c2ccc(C3(N)CCCC3)cn2)ccc2[nH]ncc12 [Compound 5-46, 5-[5-(1-Aminocyclopentyl)pyridin-2-yl]-4-methoxy-1H-indazole trihydrochloride] | 27 |
| CC(C)(N)c1ccc(-c2ccc3[nH]ncc3c2N2CCOCC2)cc1 [Compound 5-43, 5-[4-(1-Amino-1-methylethyl)phenyl]-4-(morpholin-4-yl)-1H-indazole trihydrochloride] | 211 |
| CC(C)(N)c1ccc(-c2ccc3[nH]ncc3c2CCO)nc1 [Compound 5-33, 5-[5-(1-Amino-1-methylethyl)pyridin-2-yl]-4-(2-hydroxyethyl)-1H-indazole trihydrochloride] | 234 |
| CCC(N)(CC)c1ccc(-c2ccc3[nH]ncc3c2OC2CC2)nc1 [Compound 5-71, 5-[5-(1-Amino-1-ethylpropyl)pyridin-2-yl]-4-cyclo-propyloxy-1H-indazole trihydrochloride] | 34 |
| CN(C)c1c(-c2ccc(C3(N)CCCC3)cc2)ccc2[nH]ncc12 [Compound 5-24, 5-[4-(1-Aminocyclopentyl)phenyl]-4-dimethylamino-1H-indazole trihydrochloride] | 14 |

| Structure (SMILES) | Ki [nM] |
| --- | --- |
| CC(C)(N)c1ccc(-c2ccc3[nH]ncc3c2CO)cc1 [Compound 5-35, 5-[4-(1-Amino-1-methylethyl)phenyl]-4-hydroxymethyl-1H-indazole dihydrochloride] | 139 |
| CC(C)(N)c1ccc(-c2ccc3[nH]ncc3c2[N+](=O)[O-])cc1 [Compound 5-4, 5-[4-(1-Amino-1-methylethyl)phenyl]-4-nitro-1H-indazole monohydrochloride] | 28 |
| CC(C)(N)c1ccc(-c2ccc3[nH]ncc3c2-c2ccno2)cc1 [Compound 5-68, 5-[4-(1-Amino-1-methylethyl)phenyl]-4-(isoxazol-5-yl)-1H-indazole dihydrochloride] | 6.4 |
| CC(O)c1c(-c2ccc(C(C)(C)N)cc2)ccc2[nH]ncc12 (stereo not drawn) [Compound 5-34, 5-[4-(1-Amino-1-methylethyl)phenyl]-4-(1-hydroxy-ethyl)-1H-indazole dihydrochloride] | 294 |
| CCC(N)(CC)c1ccc(-c2ccc3[nH]ncc3c2OC(F)F)cc1 [Compound 5-72, 5-[4-(1-Amino-1-ethylpropyl)phenyl]-4-difluoro-methoxy-1H-indazole dihydrochloride] | 13 |
| CC(C)(N)c1ccc(-c2ccc3[nH]ncc3c2)cc1 [Compound 5-1, 5-[4-(1-amino-1-methylethyl)phenyl]-1H-indazole dihydrochloride] | 19 |
| CN(C)c1c(-c2ccc(C(C)(C)N)cc2)ccc2[nH]ncc12 [Compound 5-16, 5-[4-(1-Amino-1-methylethyl)phenyl]-4-dimethylamino-1H-indazole trihydrochloride] | 16 |
| CC(C)(N)c1ccc(-c2ccc3[nH]ncc3c2O)cc1 [Compound 5-48, 5-[4-(1-Amino-1-methylethyl)phenyl]-4-hydroxy-1H-indazole dihydrochloride] | 29 |
| CC(C)(N)c1ccc(-c2ccc3[nH]ncc3c2NCc2ccccc2)cc1 [Compound 5-6, 5-[4-(1-Amino-1-methylethyl)phenyl]-4-benzylamino-1H-indazole dihydrochloride] | 260 |
| CC(C)(N)c1ccc(-c2ccc3[nH]ncc3c2-n2cccc2)cc1 [Compound 5-39, 5-[4-(1-Amino-1-methylethyl)phenyl]-4-(pyrrol-1-yl)-1H-indazole dihydrochloride] | 12 |
| CC(C)(N)c1ccc(-c2ccc3[nH]ncc3c2-c2ccncc2)cc1 [Compound 5-61, 5-[4-(1-Amino-1-methylethyl)phenyl]-4-(pyridin-4-yl)-1H-indazole trihydrochloride] | 45 |
| CCN(CC)c1c(-c2ccc(C(C)(C)N)cc2)ccc2[nH]ncc12 [Compound 5-31, 5-[4-(1-Amino-1-methylethyl)phenyl]-4-diethylamino-1H-indazole trihydrochloride] | 614 |
| CC(C)(N)c1ccc(-c2ccc3[nH]ncc3c2-c2cnco2)cc1 [Compound 5-66, 5-[4-(1-Amino-1-methylethyl)phenyl]-4-(oxazol-5-yl)-1H-indazole dihydrochloride] | 2.6 |
| CCCOc1c(-c2ccc(C(C)(C)N)cn2)ccc2[nH]ncc12 [Compound 5-58, 5-[5-(1-Amino-1-methylethyl)pyridin-2-yl]-4-n-propoxy-1H-indazole trihydrochloride] | 39 |
| Nc1c(-c2ccc(C3(N)CCCC3)cc2)ccc2[nH]ncc12 [Compound 5-21, 4-Amino-5-[4-(1-aminocyclopentyl)phenyl]-1H-indazole dihydrochloride] | 26 |
| CC(C)(N)c1ccc(-c2ccc3[nH]ncc3c2-c2cn[nH]c2)cc1 [Compound 5-64, 5-[4-(1-Amino-1-methylethyl)phenyl]-4-(pyrazol-4-yl)-1H-indazole trihydrochloride] | 4.4 |

Reference: patent US8232308B2, “Methods for treating a disease in which Rho kinase is involved” (UBE Industries, Ltd., priority 2003, dated 2012)
